Where “and” joins values, the source holds several entries; their conditions need not be identical. Identical values can stand only once. Like-named read-outs stand apart in the source and are kept apart here.
Experiments:
HEK293 cells = assay: HEK293 cytotoxicity, CellTiter-Glo, 48 h; settings: for inhibition at 10 µM: Homo sapiens, HEK293, read-out: HEK293 inhibition (%); for HEK293 inhibition (%): growth inhibition at 10 µM, ± SD
[1] = DPPH radical scavenging (antioxidant) assay; settings: after 2 h, mean ± SEM
[2] = test system: T. brucei brucei Lister 427; assay: T. b. brucei Lister 427 bloodstream-form growth inhibition, SYBR Green viability assay, 72 h; format: cell-based, Trypanosoma brucei brucei
HepG2 cells = assay: HepG2 cytotoxicity, CellTiter-Glo, 48 h; settings: for inhibition at 10 µM: Homo sapiens, HepG2, read-out: HepG2 inhibition (%); for HepG2 inhibition (%): growth inhibition at 10 µM, ± SD
[3] = target: T. brucei cathepsin L-like protease (TbrCATL) (Trypanosoma brucei rhodesiense, UniProt Q95PM0); assay: TbrCATL inhibition assay, Z-FR-AMC substrate; format: biochemical; settings: for SI TbrCATL: IC50 hCatL/IC50 TbrCATL; for IC50: mean ± SD, two experiments in triplicate (n = 6)
T. brucei cathepsin L-like protease (TbrCATL), sequence (Q95PM0 1-450): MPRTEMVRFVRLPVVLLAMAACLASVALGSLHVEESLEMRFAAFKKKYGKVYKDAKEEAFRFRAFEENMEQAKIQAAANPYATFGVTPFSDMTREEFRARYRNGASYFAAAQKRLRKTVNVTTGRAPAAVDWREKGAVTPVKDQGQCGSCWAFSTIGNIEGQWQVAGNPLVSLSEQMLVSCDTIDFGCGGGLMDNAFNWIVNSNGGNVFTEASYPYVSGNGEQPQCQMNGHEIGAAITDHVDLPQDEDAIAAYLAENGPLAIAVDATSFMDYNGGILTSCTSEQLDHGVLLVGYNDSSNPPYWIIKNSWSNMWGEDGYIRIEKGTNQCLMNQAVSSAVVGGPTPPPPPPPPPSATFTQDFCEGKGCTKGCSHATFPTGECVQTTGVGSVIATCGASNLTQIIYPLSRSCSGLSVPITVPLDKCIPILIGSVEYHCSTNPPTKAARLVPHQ
Protocol: (§1) All experiments were performed in a 384-well black microplate, using a Synergy HTX (Biotek) plate reader at 25 °C with absorption/emission wavelengths of 360/460 nm. Assays were performed in triplicate wells and DMSO was used as a vehicle control. Enzyme activity was measured and normalized to DMSO controls, and the inhibitor E-64 (10 μM) was used as a positive control for all assays. Experiments were performed in triplicate, with at least two independent assays (n = 6 data points). IC50 values were determined through nonlinear regression. The data obtained were analyzed using GraphPad Prism 9.0 (GraphPad Software, La Jolla, California, US).
The screening assay was performed using 0.5 nM of TbrCATL diluted in 0.1 M sodium acetate, 1 mM dithiothreitol (DTT), and 0.01% Triton X-100, pH 5.5. TbrCATL was expressed and purified as described. Enzyme the compound (10 μM), were incubated for 10 min at room temperature. Then the substrate, Z-Phe-Arg-amidomethylcoumarin (Z-FR-AMC; Sigma-Aldrich, C9521), was added (30 μL diluted in the same assay buffer) to yield a final concentration of 2.5 μM and the assay allowed to proceed for 10 min. […] For those compounds inhibiting enzyme activity by >85%, DR assays were performed over 15 2-fold serial dilutions starting at 0.5 or 20 μM.

[4] = target: T1, human cathepsin L (hCatL) (Homo sapiens, UniProt P07711); assay: hCatL inhibition assay, Z-FR-AMC substrate; format: biochemical; settings: mean ± SD, two experiments in triplicate (n = 6)
T1 construct: purchased R&D Systems 952-CY
T1 sequence (P07711 114-333): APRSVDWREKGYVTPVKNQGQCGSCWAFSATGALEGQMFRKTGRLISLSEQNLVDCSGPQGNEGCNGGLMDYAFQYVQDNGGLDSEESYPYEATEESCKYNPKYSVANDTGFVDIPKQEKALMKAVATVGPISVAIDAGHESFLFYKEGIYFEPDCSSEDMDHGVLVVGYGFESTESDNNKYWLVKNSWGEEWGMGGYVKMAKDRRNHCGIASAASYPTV
Protocol: as §1
Recombinant hCatL was purchased from R&D Systems (952-CY) and activated according to the manufacturers protocol. This enzyme, hCatL, is used to test compounds’ selectivity because it is the human homologue of TbrCATL. The assay was modified from, using 25 pM of the enzyme diluted in 40 mM sodium acetate, 5 mM DTT, 100 mM NaCl, 1 mM EDTA and 0.01% Triton X-100, pH 5.5. Enzyme and compound (10 μM), were incubated for 30 min at room temperature. Then Z-FR-AMC was added (30 μL diluted in the same assay buffer) to yield a final concentration of 25 μM and the assay allowed to proceed for 10 min. DR assays were performed over 15 2-fold serial dilutions starting at 0.5 or 20 μM.

C2C12 cells = settings: read-out: Toxicity CC50 C2C12 cells; cited from earlier work
in vitro [5] = settings: human, CC50 HEK293 (μM)
in vitro [6] = settings: human, CC50 HepG2 (μM)
T. cruzi CAI/72 = settings: cited from earlier work
[7] = pharmacokinetic study; ref previous work; cited from earlier work
cruzain (Cz) = settings: cited from earlier work
[8] = HEK293 cytotoxicity, CellTiter-Glo, 48 h; settings: human, HEK293 cells
[9] = HepG2 cytotoxicity, CellTiter-Glo, 48 h; settings: human, HepG2 cells
[10] = Trypanosoma brucei, growth inhibition at 10 µM, ± SD
[11] = read-out: TbrCATL inhibition (%), at 10 μM
[12] = growth inhibition at 10 µM, ± SD
[13] = Trypanosoma brucei, three independent experiments in duplicate (n = 6) ± SD, read-out: EC50 T. brucei
[14] = growth inhibition at 10 µM, ± SD, 10 µM
[15] = at 10 μM, read-out: TbrCATL inhibition (%)

Row | SMILES | inhibition at 10 µM (HEK293 cells) | % inhibited DPPH ([1]; 0.06 mg/ml) | inhibition at 10 µM [2, 10] | inhibition at 10 µM (HepG2 cells) | SI TbrCATL [3] | TbrCATL inhibition (%) ([3]; at 10 μM) | inhibition at 10 µM [3, 11] | IC50 [4] | % inhibited DPPH ([1]; 0.015 mg/ml) | % inhibited DPPH ([1]; 0.03 mg/ml) | T. brucei inhibition (%) [2, 14] | other results
1 | C/C(=N\NC(N)=S)c1cccc([N+](=O)[O-])c1 [SO5] | 14 ± 9% | 23.33 ± 19.46% | 31 ± 5% | 39 ± 9% | 4 | 100.00% | > 85% | 20.7 ± 4.36 nM |  |  |  | IC50 ([3]; read-out: IC50 TbrCATL): 5.83 ± 0.35 nM
2 | N=C(N)c1ccc(OCCCCCOc2ccc(C(=N)N)cc2)cc1 [Pentamidine, reference compound] |  |  |  |  |  |  |  |  |  |  |  | inhibition at 10 µM ([2]; Trypanosoma brucei): 100 ± 2%; EC50 ([2]; Trypanosoma brucei, read-out: EC50 T. brucei (μM)): 0.014 ± 0.002 µM
3 | COc1ccc(C(C)=NNc2nc(C)cs2)cc1.Cl [SC2] |  |  |  |  |  |  |  |  |  |  |  | HEK293 inhibition (%) (HEK293 cells): 33 ± 8%; T. brucei inhibition (%) [2, 12]: 27 ± 5%; HepG2 inhibition (%) (HepG2 cells): 6 ± 3%
4 | C/C(=N\Nc1nc(C)c[se]1)c1ccc(Br)cc1 [SeC3] | 88 ± 3% | 75.67 ± 1.45% |  | 80 ± 2% | 4 | 101.02% | > 85% | 793 ± 66.5 nM | 35.00 ± 18.82% | 71.00 ± 3.06% | 99 ± 2% | CC50 (C2C12 cells): > 10 µM; CC50 (in vitro [5]): 5.9 ± 1.22 µM; EC50 [2, 13]: 6.04 ± 0.72 µM; T. brucei inhibition (%) ([2]; growth inhibition at 10 µM, ± SD, listed as Se C3, 10 µM): > 70%; IC50 ([3]; IC50 TbrCATL (nM)): 201.7 ± 0.92 nM; CC50 (in vitro [6]): 4.68 ± 0.14 µM
5 | C/C(=N\Nc1nc(C)cs1)c1cccc([N+](=O)[O-])c1 [SC5] | 30 ± 3% | 66.67 ± 1.86% | 40 ± 8% | 17 ± 2% | 49 | 87.70% | > 85% | 4070 ± 383 nM | 66.33 ± 1.86% | 68.67 ± 2.03% |  | IC50 ([3]; read-out: IC50 TbrCATL): 82.6 ± 4.05 nM
6 | O=C1O[C@H]([C@@H](O)CO)C(O)=C1O [ASC, ascorbic acid, reference compound] |  | 80.33 ± 0.67% |  |  |  |  |  |  | 76.00 ± 3.52% | 80.33 ± 0.33% |  | 
7 | C/C(=N\Nc1nc(C)c[se]1)c1cccc([N+](=O)[O-])c1 [SeC5] | 81 ± 7% | 78.33 ± 1.76% |  | 77 ± 6% | 25 | 98.02% | > 85% | 175 ± 43.7 nM | 77.33 ± 0.88% | 78.00 ± 1.73% | 100 ± 2% | CC50 (C2C12 cells): > 10 µM; CC50 (in vitro [5]): 9 ± 1.36 µM; EC50 (T. cruzi CAI/72): 310 ± 180 nM; EC50 [2, 13]: 10.5 ± 1.02 µM; T. brucei inhibition (%) ([2]; growth inhibition at 10 µM, ± SD, listed as Se C5, 10 µM): > 70%; oral bioavailability [7]: favorable oral bioavailability; CC50 (in vitro [6]): 11.3 ± 0.97 µM; IC50 (cruzain (Cz)): 8.99 ± 5.56 nM
8 | C/C(=N\NC(N)=S)c1ccc(C)cc1 [SO1] | 30 ± 3% | 45.00 ± 8.33% | 44 ± 7% | 50 ± 4% |  |  |  |  |  |  |  | inhibition at 10 µM [3, 15]: 80%
9 | C/C(=N\NC(N)=[Se])c1cccc([N+](=O)[O-])c1 [SeO5] | 100% | 75.67 ± 1.67% |  | 85% | 2 | 101.47% | > 85% | 0.51 ± 0.08 nM | 22.00 ± 17.67% | 63.33 ± 6.89% | 100 ± 1% | CC50 (C2C12 cells): > 10 µM; CC50 (in vitro [5]): 2.29 ± 0.26 µM; EC50 [2, 13]: 5.83 ± 0.72 µM; T. brucei inhibition (%) ([2]; growth inhibition at 10 µM, ± SD, listed as Se O5, 10 µM): > 70%; IC50 ([3]; IC50 TbrCATL (nM)): 0.51 nM and 0.3 nM; CC50 (in vitro [6]): 5.54 ± 1.47 µM; IC50 (cruzain (Cz)): 0.91 ± 0.18 nM
10 | C/C(=N\NC(N)=S)c1ccc(Br)cc1 [SO3] | 76 ± 2% | 29.33 ± 24.77% | 28 ± 4% | 65 ± 4% | 19 | 95.54% | > 85% | 136 ± 19.9 nM |  |  |  | IC50 ([3]; read-out: IC50 TbrCATL): 7.33 ± 0.27 nM
11 | C/C(=N\Nc1nc(C)c[se]1)c1ccc(C)cc1 [SeC1] | 77 ± 2% | 72.33 ± 2.33% | 72 ± 6% | 65 ± 9% |  | 51.07% |  |  | 71.67 ± 2.85% | 71.67 ± 2.40% | > 70% | CC50 (in vitro [5]): 12 ± 4.94 µM; EC50 [2, 13]: 9.8 ± 0.63 µM; TbrCATL inhibition (%) ([3]; at 10 μM, listed as Se C1, 10 µM): ≤ 85%; CC50 (in vitro [6]): 11 ± 0.88 µM
12 | Cc1c(C)c2c(c(C)c1O)CCC(C)(C(=O)O)O2 (stereo not shown) [TRO, Trolox, reference compound] |  | 79.67 ± 0.67% |  |  |  |  |  |  | 79.33 ± 1.33% | 79.33 ± 0.882% |  | 
13 | C/C(=N\NC(N)=[Se])C12CC3CC(CC(C3)C1)C2 [SeO11] |  |  |  |  |  |  |  |  |  |  | 100 ± 1% | HEK293 inhibition (%) (HEK293 cells): 100 ± 4%; CC50 (HEK293 cells; read-out: CC50 HEK293, three independent experiments in duplicate): 10.5 ± 0.36 µM; T. brucei inhibition (%) ([2]; growth inhibition at 10 µM, ± SD, listed as Se O11, 10 µM): > 70%; EC50 ([2]; three independent experiments in duplicate (n = 6) ± SD, read-out: EC50 T. brucei): 5.16 ± 1.06 µM; HepG2 inhibition (%) (HepG2 cells): 66 ± 5%; CC50 (HepG2 cells; read-out: CC50 HepG2, three independent experiments in duplicate): 6.01 ± 0.69 µM
14 | C/C(=N\Nc1nc(C)c[se]1)C12CC3CC(CC(C3)C1)C2 [SeC11] |  |  |  |  |  |  |  |  |  |  |  | HEK293 inhibition (%) (HEK293 cells): 64 ± 10%; T. brucei inhibition (%) [2, 12]: 37 ± 0%; HepG2 inhibition (%) (HepG2 cells): 66 ± 2%
15 | C/C(=N\Nc1nc(C)cs1)c1ccc(C)cc1 [SC1] | 24 ± 7% | 60.00 ± 4.16% | 30 ± 6% | 4 ± 15% |  |  |  |  | 55.00 ± 1.53% | 54.33 ± 1.86% |  | inhibition at 10 µM [3, 15]: 32.9%
16 | CC(C)C[C@H](NC(=O)[C@H](Cc1ccccc1)NC(=O)c1cnccn1)B(O)O [Bortezomib, reference compound] | 100 ± 2% |  |  | 100 ± 1% |  |  |  |  |  |  |  | CC50 at 48 h [8]: 15 ± 2 nM; CC50 at 48 h [9]: 15 ± 3 nM
17 | C/C(=N\NC(N)=[Se])c1ccc(C)cc1 [SeO1] | 100 ± 1% | 77.33 ± 1.76% |  | 80 ± 1% | 5 | 97.08% | > 85% | 84.5 ± 17 nM | 45.67 ± 9.56% | 78.00 ± 1.16% | 100 ± 1% | CC50 (in vitro [5]): 4.27 ± 0.22 µM; EC50 [2, 13]: 0.98 ± 0.12 µM; T. brucei inhibition (%) ([2]; growth inhibition at 10 µM, ± SD, listed as Se O1, 10 µM): > 70%; IC50 ([3]; IC50 TbrCATL (nM)): 17.9 ± 3.62 nM; CC50 (in vitro [6]): 4.17 ± 0.6 µM
18 | C/C(=N\Nc1nc(C)cs1)c1ccc(Br)cc1 [SC3] | 64 ± 2% | 67.00 ± 2.31% | 38 ± 9% | 46 ± 7% |  |  |  |  | 68.00 ± 3.06% | 69.33 ± 2.33% |  | inhibition at 10 µM [3, 15]: 54%
19 | C/C(=N\Nc1nc(C)cs1)C12CC3CC(CC(C3)C1)C2.Cl [SC11] |  |  |  |  |  |  |  |  |  |  |  | HEK293 inhibition (%) (HEK293 cells): 39 ± 3%; T. brucei inhibition (%) [2, 12]: 19 ± 8%; HepG2 inhibition (%) (HepG2 cells): 0 ± 13%

From publication PMC12177781, “Chalcogen Derivatives for the Treatment of African Trypanosomiasis: Biological Evaluation of Thio- and Seleno-Semicarbazones and Their Azole Derivatives” (ACS Omega, 2025)
